Assay results reported in US20100266573A1, “METHOD AND MEANS FOR OBTAINING BRONCHORELAXATION” (Pharmalundensis AB, priority 2007, published 2010).

What was measured:
[1] = humans; cited from earlier work
[2] = may cause adverse effects in some individuals; cited from earlier work
[3] = test system: patient with chronic obstructive pulmonary disease (COPD); experiment: Administration of iodine on activated charcoal to a COPD patient, spirometric evaluation and observed bronchorelaxation; format: in vivo, human; conditions: same COPD patient; 50 mg elemental iodine in a gelatin capsule for a few days
Description: A person, had been smoking cigarettes daily for many years, but quit about 10 years ago. The decision to quit smoking was caused by increasing problems from the airways, with repeated episodes of pneumonia and airway obstruction. These symptoms were usually treated with antibiotics, steroids and bronchodilators.
After that, the airway symptoms increased considerably, with month-long episodes of cough and exercise-induced dyspnea.
In the following months the situation continued to worsen with loss of appetite, reduction of weight and severe dyspnea during rest, in spite of maximum treatment with anti-cholinergics, steroids and bronchodilators. The patient now felt desperately ill, and questioned how long they would be able to survive.
The severity of their condition prompted the patient to look for alternative treatments. […] […] […] A renewed spirometric evaluation a few months later confirmed the subjective improvements (FEV1=2.79 L, corresponding to 97.1% of their reference value and PEF=427 L/min, corresponding to 92.5% of their reference value).
The patient has continued to regularly take the combination for more than a year and still experiences the full benefit of it. A temporary discontinuation of the intake for a few days led to the reappearance of many of the symptoms. However, they quickly disappeared upon the resumption of the intake of iodinated activated charcoal. […]

Structure (SMILES)	no-effect level [1]	iodine intake probably safe for the majority of the population [2]	bronchorelaxing effect [3]
[Br-].[Na+] [Sodium bromide, sodium bromide]	4 mg/kg body weight		
II [elemental iodine, iodine]		less than or equal to 1,000 mg/day	no distinct bronchorelaxing effect was observed
